Data on two compounds can be found in US5128254A (The United States of America as represented by the …, priority 1989, dated 1992).

Experiment [1] concerns the target T1, D2 receptor (long isoform, D2L) (Rattus norvegicus, UniProt P61169). Kind of experiment: biochemical. The conditions noted are these: transfected COS-7 cell membranes.
Experimental: (§1) A 2.4-kb Xba I-Xho I fragment containing the entire coding region and most of the D2 receptor cDNA was excised from the pBluescript clone and ligated into the corresponding restriction sites of the pEUK-C1 vector (Clontech, Palo Alto, Calif.) The resulting plasmid, pEUK-D2L, was then transfected into COS-7 cells using a modified CaPO4 precipitation method (Clontech). The cells were treated with 3 mM sodium butyrate after 48 hr and were harvested after 72 hr.
The target of experiment [2] is T1, D2 receptor (long isoform, D2L). As to conditions: competition for [3H]methylspiperone binding.
Experimental: as §1

T1 sequence (P61169 whole entry, canonical isoform): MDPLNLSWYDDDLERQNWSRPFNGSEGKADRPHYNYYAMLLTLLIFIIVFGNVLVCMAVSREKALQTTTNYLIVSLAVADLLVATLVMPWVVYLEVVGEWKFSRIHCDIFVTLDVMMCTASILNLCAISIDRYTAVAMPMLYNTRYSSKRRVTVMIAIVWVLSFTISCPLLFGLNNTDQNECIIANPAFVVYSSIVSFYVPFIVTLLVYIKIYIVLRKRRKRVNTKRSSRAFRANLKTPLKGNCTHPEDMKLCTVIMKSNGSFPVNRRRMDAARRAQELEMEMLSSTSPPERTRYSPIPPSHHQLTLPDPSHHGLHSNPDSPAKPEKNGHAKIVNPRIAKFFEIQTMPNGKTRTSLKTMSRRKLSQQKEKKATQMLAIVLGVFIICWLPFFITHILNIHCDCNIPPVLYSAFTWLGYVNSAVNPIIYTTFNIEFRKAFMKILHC

`CN1CN(c2ccccc2)C2(CCN(CCCC(=O)c3ccc(F)cc3)CC2)C1=O` [[3H]methylspiperone]: the Kd – broadly, the concentration at which binding is half-saturated – in experiment [1] (affinity of [3H]methylspiperone saturation binding, mean ± SEM) is 62.1 ± 2.1 pM; in experiment [1] (calculated KD of [3H]methylspiperone binding (Scatchard), one experiment representative of three (FIG. 2A)), 64.1 pM.

Take `NCCc1ccc(O)c(O)c1` [Dopamine]: the “effect of guanine nucleotides on competition curve” value in experiment [2] (data not shown) is reported as “not significantly affected by guanine nucleotides”. Further, in experiment [2] (transfected COS-7 cell membranes), the “Hill coefficient of competition curve” value is reported as “≈ 1”.
